Measurements: patent publication US20160279164A1, “High-Molecular Weight Conjugate Of Resorcinol Derivatives” (Nippon Kayaku Kabushiki Kaisha, priority 2006, published 2016)

Test system: mouse colon cancer Colon26
Assay: Anti-tumor effect on mice transplanted with the mouse colon cancer Colon26
Assay type: in vivo
Conditions: 5 consecutive days, female CDF1 mice
From the text: Tumor of mouse colon cancer, Colon26, maintained by serial subcutaneous subculture in BALB/cA mice, was minced into about 2-mm square blocks, and the blocks were transplanted subcutaneously on the dorsal part of a female CDF1 mice with a trocar. On the 7th day after tumor transplantation, the high-molecular weight conjugate of a resorcinol derivative (compound 1) of the present invention, and as a control, the included resorcinol derivative, 5-(2,4-dihydroxy-5-isopropyl-phenyl)-4-(4-methoxy-phenyl)-2,4-dihydro-[1,2,4]triazol-3-one), were administered intravenously to the mouse tail vein. Compound 1 of the present invention was dissolved in a 5% glucose injectable solution, and was administered once. The resorcinol derivative (the included compound) used as the control, was dissolved in DMSO, and TWEEN80 was added thereto, and then the mixture was diluted with a 5% glucose injectable solution. The dilution was administered once a day for 5 consecutive days. After the administration, the major diameter (L mm) and the minor diameter (W mm) of the tumor were measured regularly, and the tumor volume was calculated by the formula: (L×W^2)/2. Based on the tumor volume of the administration initiation day, the average relative tumor volume for each measurement day was determined (Table 1).

With `COc1ccc(-n2c(-c3cc(C(C)C)c(O)cc3O)n[nH]c2=O)cc1` [Included compound, 5-(2,4-dihydroxy-5-isopropyl-phenyl)-4-(4-methoxy-phenyl)-2,4-dihydro-[1,2,4]triazol-3-one] as the compound, how does the “average relative tumor volume” value (day 0 after administration, 50 mg/kg/day i.v.) read?
The value was 1.0.

And the “average relative tumor volume” value (day 0 after administration, 100 mg/kg/day i.v.)?
The value was 1.0.

And the “average relative tumor volume” value (day 2 after administration, 50 mg/kg/day i.v.)?
Its value is 1.6.

And the “average relative tumor volume” value (day 2 after administration, 100 mg/kg/day i.v.)?
The value was 1.1.

And the “average relative tumor volume” value (day 3 after administration, 50 mg/kg/day i.v.)?
Its value is 1.6.

And the “average relative tumor volume” value (day 3 after administration, 100 mg/kg/day i.v.)?
The value was 0.7.

What about the “average relative tumor volume” value (day 5 after administration, 50 mg/kg/day i.v.) of the same compound?
The value was 2.5.

And the “average relative tumor volume” value (day 5 after administration, 100 mg/kg/day i.v.)?
Its value is 1.0.

And the “average relative tumor volume” value (day 7 after administration, 50 mg/kg/day i.v.)?
The value was 2.5.

What about the “average relative tumor volume” value (day 7 after administration, 100 mg/kg/day i.v.) of the same compound?
Its value is 3.3.

What about the “average relative tumor volume” value (day 9 after administration, 50 mg/kg/day i.v.) of the same compound?
The value was 6.7.

What about the “average relative tumor volume” value (day 9 after administration, 100 mg/kg/day i.v.) of the same compound?
Its value is 5.0.

What about the “average relative tumor volume” value (day 12 after administration, 50 mg/kg/day i.v.) of the same compound?
The value was 10.

And the “average relative tumor volume” value (day 12 after administration, 100 mg/kg/day i.v.)?
Its value is 11.

What about the “average relative tumor volume” value (day 14 after administration, 50 mg/kg/day i.v.) of the same compound?
Its value is 13.

And the “average relative tumor volume” value (day 14 after administration, 100 mg/kg/day i.v.)?
The value was 12.
